Measurements reported in US4481194A, “Des-proline-des-glycine vasopressin antagonists” (SmithKline Beckman Corporation, priority 1984, dated 1984).
Numbered stars: 1 amine (or outer) side, 2 acyl side, 3 side chain; on linkers, the order of the positions; unused ones are H or OH. Bridge positions count the residues as written; N and C are the ends. Square brackets hold non-standard residues; d marks the D form. Peptide text beside a SMILES is read from it. X1 = O=C(CC1(S[*:2])CCCCC1)[*:1]; Abu = CC[C@H](N)C(=O)O

Columns and labels:
[1] = biological target: T1, vasopressin stimulated adenylate cyclase (Sus scrofa, UniProt P32307); assay: Vasopressin stimulated adenylate cyclase activity in kidney medullary membrane; type: biochemical; conditions: In Vitro (Pig); antagonism of vasopressin stimulated adenylate cyclase, medullary tissue
T1 construct: in the medullary tissue of hog or human kidneys; from tissue; host or cells: kidney medullary membranes (hog or human)
T1 sequence (P32307 whole entry): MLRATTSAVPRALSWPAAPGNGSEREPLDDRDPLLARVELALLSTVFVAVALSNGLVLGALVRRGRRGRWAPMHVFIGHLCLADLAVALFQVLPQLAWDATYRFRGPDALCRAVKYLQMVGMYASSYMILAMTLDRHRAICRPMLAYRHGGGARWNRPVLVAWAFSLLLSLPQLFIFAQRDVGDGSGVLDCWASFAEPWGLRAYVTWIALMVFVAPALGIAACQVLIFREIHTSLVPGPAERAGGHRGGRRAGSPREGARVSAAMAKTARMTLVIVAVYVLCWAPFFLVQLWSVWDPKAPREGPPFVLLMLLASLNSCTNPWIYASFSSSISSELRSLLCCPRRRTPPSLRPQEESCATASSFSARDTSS
Method: In the test procedure for assay of adenylate cyclase activity, the amount of ^32 P/cAMP formed in the absence of medullary membrane is determined (blank). The blank value is subtracted from all experimental data. The compound is tested for its effect on basal adenylate cyclase activity and/or on vasopressin stimulated activity. Each determination is carried out in triplicate. The Ka value is derived from a Lineweaver-Burkeplot. Rel. Vmax =(Vmax drug/Vmax vasopressin)×100. Ki =I/[Ka'/Ka)-1] where I is the concentration of the antagonist, and Ka' and Ka are the concentrations of vasopressin required to give half maximal activity of adenylate cyclase in the presence and absence of antagonist, respectively.

[2] = biological target: T2, vasopressin receptors [V2 -receptors] (Sus scrofa, UniProt P32307); assay: 3H-vasopressin binding assay, hog kidney membranes; conditions: In Vitro (Pig); competitive inhibition of 3H-vasopressin binding; read-out: BB
T2 construct: average KD value determined on 3 preparations of hog kidney membranes; from tissue; host or cells: hog kidney medullary membranes
T2 sequence (P32307 whole entry): as above
Method: In the test procedure for binding assays, the amount of ^3 H-vasopressin bound in the absence and in the presence of an excess of vasopressin (7.5×10^-6 M) is measured in triplicate. These values represent total and non-specific binding, respectively.

hydropenic rat = assay: Hydropenic rat screen (anti-ADH activity in vivo); conditions: estimated dose of peptide delivered ip which reduces Uosm from hydropenic levels to 300 mOsmoles/kg H2O
Method: Antagonistic activity toward the natural antidiuretic hormone (anti-ADH activity) is determined, in vitro, in the medullary tissue of hog or human kidneys and, in vivo, in the hydropenic rat. The in vitro assay procedures for vasopressin stimulated adenylate cyclase activation or vasopression binding activity are described by F. Stassen et al., J. Pharmacology and Experimental Therapeutics, 223, 50-54 (1982).
The assay for anti-ADH activity is the hydropenic rat protocol is described below:
Food and water are removed from male rats approximately 18 hours prior to testing. Animals are housed 4 per metabolism cage. At 0 hour, the test compound is administered intraperitoneally to the test group and an equivalent volume of vehicle is administered to both control groups (fasted and non-fasted). Urine volume and osmolality are measured every hour for 4 hours. Test values are recorded as ml of urine excreted (cumulative), mEq/rat electrolyte excreted, mg/rat urea excreted, and osmolality in milli-Osmoles/kg H2 O. A tolerance test is used to determine significance. ED300 is defined as the dose of compound (μg/kg) required to lower urine osmolality to 300 m-Osmoles/kg.

SMILES | Ki [1] [nM] | Ki [2] [µM] | ED300 (hydropenic rat) [µg/kg]
CCOc1ccc(C[C@H]2NC(=O)CC3(CCCCC3)SSC[C@@H](C(=O)N[C@@H](CCCNC(=N)N)C(N)=O)NC(=O)[C@H](CC(N)=O)NC(=O)[C@H](C(C)C)NC(=O)[C@H](Cc3ccccc3)NC2=O)cc1 [A] ([dY](Et)FVNCR-NH2; linker N-5 via X1) | 2.5 | 9 | –
CCOc1ccc(C[C@H]2NC(=O)CC3(CCCCC3)SSC[C@@H](C(=O)N[C@@H](CCCNC(=N)N)C(N)=O)NC(=O)[C@H](CC(N)=O)NC(=O)[C@H](CC)NC(=O)[C@H](Cc3ccccc3)NC2=O)cc1 [B, 1(mercapto-β,cyclopentamethylenepropionic acid)2-(O--ethylD-tyrosine)-4-aminobutyric acid7-desproline-8-arginine-9-desglycinevasopressin] ([dY](Et)F[Abu]NCR-NH2; linker N-5 via X1) | 6.2 | – | 121.8
CCOc1ccc(C[C@H]2NC(=O)CC3(CCCCC3)SSC[C@@H](C(=O)N3CCC[C@H]3C(=O)N[C@@H](CCCNC(=N)N)C(=O)NCC(N)=O)NC(=O)[C@H](CC(N)=O)NC(=O)[C@H](C(C)C)NC(=O)[C@H](Cc3ccccc3)NC2=O)cc1 [C, [mercapto-β,cyclopentamethylenepropionic acid)2-(O--ethylD-tyrosine)-4-valine-8-argininevasopressin, reference compound] ([dY](Et)FVNCPRG-NH2; linker N-5 via X1 (inferred); C-terminus assumed) | 9.8 | – | 11.0
